Laboratory results taken from patent US20230301981A1, “TLR7/8 ANTAGONISTS AND USES THEREOF” (Merck Patent GmbH, priority 2020, published 2023).

Target: T1, TLR⅞ (Mus musculus, UniProt P58681)
T1 sequence (P58681 27-1050): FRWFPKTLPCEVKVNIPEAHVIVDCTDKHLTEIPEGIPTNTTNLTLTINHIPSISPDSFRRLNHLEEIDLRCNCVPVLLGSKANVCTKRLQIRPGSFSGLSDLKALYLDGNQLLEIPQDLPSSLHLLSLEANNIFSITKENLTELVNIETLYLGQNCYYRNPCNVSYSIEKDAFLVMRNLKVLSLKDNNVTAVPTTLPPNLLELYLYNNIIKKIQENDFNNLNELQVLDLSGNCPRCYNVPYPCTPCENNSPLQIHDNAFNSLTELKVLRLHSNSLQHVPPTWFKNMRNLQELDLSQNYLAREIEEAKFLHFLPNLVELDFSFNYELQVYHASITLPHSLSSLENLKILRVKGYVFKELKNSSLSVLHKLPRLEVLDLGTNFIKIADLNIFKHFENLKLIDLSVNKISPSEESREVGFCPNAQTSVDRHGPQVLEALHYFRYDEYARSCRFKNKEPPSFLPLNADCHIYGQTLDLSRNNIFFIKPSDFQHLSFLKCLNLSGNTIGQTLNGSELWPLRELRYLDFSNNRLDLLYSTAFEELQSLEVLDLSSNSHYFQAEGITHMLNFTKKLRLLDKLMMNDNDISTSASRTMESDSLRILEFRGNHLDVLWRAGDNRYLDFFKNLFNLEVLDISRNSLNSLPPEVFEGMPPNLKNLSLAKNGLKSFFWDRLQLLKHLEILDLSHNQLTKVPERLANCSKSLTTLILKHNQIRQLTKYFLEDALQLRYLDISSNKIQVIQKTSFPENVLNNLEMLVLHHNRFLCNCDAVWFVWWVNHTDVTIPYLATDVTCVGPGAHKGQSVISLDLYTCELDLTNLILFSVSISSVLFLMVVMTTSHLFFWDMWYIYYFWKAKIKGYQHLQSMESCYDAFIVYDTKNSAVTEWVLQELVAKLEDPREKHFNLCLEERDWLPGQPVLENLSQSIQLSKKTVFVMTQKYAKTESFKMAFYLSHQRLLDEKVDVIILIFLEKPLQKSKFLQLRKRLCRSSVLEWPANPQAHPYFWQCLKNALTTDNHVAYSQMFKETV
Assay: Mouse spleenocytes cell assay with R848 stimulation (IL6/TNFa ELISA)
Assay type: cell-based
Details: R848 1 µM
Protocol: Mouse spleen from healthy, female C57BL-6/N mice (n=2) were taken out in 50 mL tubes with B-Cell medium and the experiment started directly. The spleen was grinded through a cell strainer by using the punch of a syringe into a 50 mL Falcon tube. Cell strainer and punch were flushed with appropriate amount of washing buffer to avoid cellloss. Then the spleenocytes were centrifuged for 10 min at 552 xg (1600 rpm), 4° C. The erythrocytes within the cell pellet were lysed by resuspending pellet in 1 ml ACK-lysing buffer (4° C.) and incubate for 1 minute at RT. Lysis was stopped by filling up to 50 ml with washing buffer and centrifuged for 10 min at 552 xg (1600 rpm), 4° C. Cells were washed in B-cell Media (IMDM + 25 mM HEPES + 10%FCS + pen/strep + NEAA 10 nM + Sodium Pyrovat 100 nM, β-Mercaptoethanol 50 nM), counted and seeded in a density of 148500 cells per well in a 96 well MTP (135µl of 1,1×106c/ml). The cells were pre-treated with antimalarials (15 µL, in different concentrations according to dose-response curve ranging from 100 pM-50 µM)) for 30 min, at 37° C., 5% CO2, followed by TLR⅞ stimulation with R848 (15 µl, final concentration of 1 µM) or a TLR9 stimulation with CpG (15 µl, final concentration of 5 µM) and incubated at 37° C., 5% CO2 for 18 - 24 hours.
Supernatants were collected and transferred into a 96 well round bottom MTP and stored at -20° C. until ELISA formouse IL6 and mouse TNFa were performed. Plates were read directly after assay on an Envision Multiplate reader. Results were analyzed with GraphPadPrism V8.0. Plot the calculated amount of produced IL6 or TNFa in pg/ml on y-axis and the concentration of each MSC concentration at half logarhythmic scaling on the x-axis to achieve a dose-response curve. Determine IC50 values using Graph Pad Prism analysis software (Transform Y values using “X=Log(X) and log inhibitor vs. response; Variable slope (four parameters).

CCN(CCO)CCCC(C)Nc1ccnc2cc(Cl)ccc12 (stereo not drawn) [HYDROXY-CHLOROQUINE HCQ, hydroxychloroquine]
IC50 TLR⅞ (IL6 readout) mouse spleenocytes (n=2) (IL6 readout): no suppr | IC50 (IL6 readout, read-out: IC50 TLR⅞ (IL6 readout) mouse spleenocytes (n=2)): 27.1 µM | IC50 TLR⅞ (TNF readout) mouse spleenocytes (n=2) (TNF readout): no suppr
